Source: US20070292906A1, “ASSAY FOR MEASURING ACYLTRANSFERASE ACTIVITY” (Bristol-Myers Squibb Company, priority 2006, published 2007)

Key:
human MGAT3 = target: T1, human MGAT3 (Homo sapiens, UniProt Q86VF5); experiment: substrate concentration titration in TLC assay, MGAT3; format: biochemical; conditions: Michaelis Menton fit, duplicate
T1 construct: made in house; host or cells: Sf9 insect cells (baculovirus), used as membrane extracts
T1 sequence (Q86VF5 1-341): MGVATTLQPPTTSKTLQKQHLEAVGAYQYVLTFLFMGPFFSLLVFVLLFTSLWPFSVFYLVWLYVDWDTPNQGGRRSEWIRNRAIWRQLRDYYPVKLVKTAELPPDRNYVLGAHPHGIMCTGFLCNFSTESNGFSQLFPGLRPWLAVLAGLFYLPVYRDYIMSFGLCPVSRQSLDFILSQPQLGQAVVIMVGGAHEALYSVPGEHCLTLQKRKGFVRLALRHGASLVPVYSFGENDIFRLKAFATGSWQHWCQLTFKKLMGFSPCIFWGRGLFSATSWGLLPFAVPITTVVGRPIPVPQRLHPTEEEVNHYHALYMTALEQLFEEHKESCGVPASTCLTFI
Description: (§1) The data shown in FIG. 1B correspond to a TLC plate assay and various substrates that could be used in the assay. Aliquots of membrane extracts (30 μg) derived from either wild type baculovirus infected Sf9 cells (WT) (lanes 4,5) infected with recombinant human DGAT1 baculovirus (DGAT1) (lanes 6-8), or with recombinant human MGAT3 baculovirus (MGAT3) (lanes 1-3), were subjected to enzyme reactions in Buffer A (150 mM potassium phosphate buffer, pH 7.4) with 50 μM [^14C]oleoyl-CoA (40,000 d.p.m./nmol specific activity) as the acyl donor, and 100 μM 1,2-dioleoylglycerol (DOG), or 2-monooleoylglycerol (2-MOG) as the acyl acceptor (delivered by acetone, final vehicle concentration at 2%).
(§2) Assays were carried out for 10 minutes as described in (Cheng et al., Biochem J. 2001 Nov. 1;359 (Pt 3):707-14.). The products were resolved by TLC in a solvent comprising hexane: ether: acetic acid in a ration of 170:30:1, respectively. The products were visualized by a Phosphoimage exposure. […]
(§3) Briefly, substrate efficiency was determined from results obtained using a TLC acyltransferase assay. […] The enzymatic products were quantified and the kinetic parameters Vmax and Km were derived using the Michaelis Menton Equation as applied by Prism® software. […]

human DGAT1 = target: T2, human DGAT1 (Homo sapiens, UniProt O75907); experiment: substrate concentration titration in TLC assay, DGAT1; format: biochemical; conditions: Michaelis Menton fit, duplicate
T2 construct: made in house; host or cells: Sf9 insect cells (baculovirus), used as membrane extracts
T2 sequence (O75907 1-488): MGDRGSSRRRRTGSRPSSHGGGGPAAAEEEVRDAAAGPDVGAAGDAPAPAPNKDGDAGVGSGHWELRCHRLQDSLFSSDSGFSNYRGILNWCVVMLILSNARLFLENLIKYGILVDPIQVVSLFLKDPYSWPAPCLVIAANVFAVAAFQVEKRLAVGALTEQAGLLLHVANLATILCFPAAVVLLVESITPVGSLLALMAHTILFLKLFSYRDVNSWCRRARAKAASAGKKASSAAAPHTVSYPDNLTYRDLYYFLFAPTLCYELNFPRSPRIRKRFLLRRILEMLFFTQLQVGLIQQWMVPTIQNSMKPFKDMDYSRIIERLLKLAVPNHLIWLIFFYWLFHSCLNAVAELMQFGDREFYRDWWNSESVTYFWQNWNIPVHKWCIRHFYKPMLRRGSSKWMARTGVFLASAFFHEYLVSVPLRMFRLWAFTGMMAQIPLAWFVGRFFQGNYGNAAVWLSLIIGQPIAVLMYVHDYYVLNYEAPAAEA
Description: as §1, §2, §3

Km with MOG relative to 1,2-sn-dioleoylglycerol (human MGAT3): significantly reduced
Vmax with MOG relative to 1,2-sn-dioleoylglycerol (human MGAT3): more than 50 fold
Km with MOG relative to 1,2-sn-dioleoylglycerol (human DGAT1): significantly reduced
Vmax with MOG relative to 1,2-sn-dioleoylglycerol (human DGAT1): more than 20 fold
SMILES: CCCCCCCC/C=C\CCCCCCCC(=O)OC(CO)CO [MOG, 2-monooleoylglycerol]
